Measured values taken from ChEMBL document CHEMBL4507291 (2021).

Tests used:
[1] = biological target: Tyrosine-protein kinase ABL1 (Homo sapiens) (UniProt P00519)
[2] = biological target: Calcium/calmodulin-dependent protein kinase kinase 1 (Homo sapiens) (UniProt Q8N5S9)
[3] = tested on: Epidermal growth factor receptor (Homo sapiens), P00533 [UNDEFINED MUTATION]
[4] = tested on: Receptor-type tyrosine-protein kinase FLT3 (Homo sapiens), P36888 [UNDEFINED MUTATION]
[5] = biological target: T1, Rhodopsin kinase GRK7 (Homo sapiens) (UniProt Q8WTQ7)
T1 sequence (whole entry): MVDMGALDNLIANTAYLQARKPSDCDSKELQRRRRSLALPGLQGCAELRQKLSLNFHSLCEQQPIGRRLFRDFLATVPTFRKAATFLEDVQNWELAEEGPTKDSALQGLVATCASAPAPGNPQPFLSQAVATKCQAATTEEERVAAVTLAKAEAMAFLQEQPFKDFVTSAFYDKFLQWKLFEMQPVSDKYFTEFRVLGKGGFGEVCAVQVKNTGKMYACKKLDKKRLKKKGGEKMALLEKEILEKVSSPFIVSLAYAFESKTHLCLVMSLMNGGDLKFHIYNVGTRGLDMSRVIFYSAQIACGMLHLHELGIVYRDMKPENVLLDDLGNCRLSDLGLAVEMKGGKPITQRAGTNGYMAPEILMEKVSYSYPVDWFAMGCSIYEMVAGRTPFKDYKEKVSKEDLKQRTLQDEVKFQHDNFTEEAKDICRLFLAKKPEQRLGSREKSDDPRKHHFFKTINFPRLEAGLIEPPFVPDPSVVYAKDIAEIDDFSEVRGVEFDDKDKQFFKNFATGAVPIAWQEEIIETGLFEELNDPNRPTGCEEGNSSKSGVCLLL

[6] = biological target: T2, Serine/threonine-protein kinase Nek1 (Homo sapiens) (UniProt Q96PY6)
T2 sequence (whole entry): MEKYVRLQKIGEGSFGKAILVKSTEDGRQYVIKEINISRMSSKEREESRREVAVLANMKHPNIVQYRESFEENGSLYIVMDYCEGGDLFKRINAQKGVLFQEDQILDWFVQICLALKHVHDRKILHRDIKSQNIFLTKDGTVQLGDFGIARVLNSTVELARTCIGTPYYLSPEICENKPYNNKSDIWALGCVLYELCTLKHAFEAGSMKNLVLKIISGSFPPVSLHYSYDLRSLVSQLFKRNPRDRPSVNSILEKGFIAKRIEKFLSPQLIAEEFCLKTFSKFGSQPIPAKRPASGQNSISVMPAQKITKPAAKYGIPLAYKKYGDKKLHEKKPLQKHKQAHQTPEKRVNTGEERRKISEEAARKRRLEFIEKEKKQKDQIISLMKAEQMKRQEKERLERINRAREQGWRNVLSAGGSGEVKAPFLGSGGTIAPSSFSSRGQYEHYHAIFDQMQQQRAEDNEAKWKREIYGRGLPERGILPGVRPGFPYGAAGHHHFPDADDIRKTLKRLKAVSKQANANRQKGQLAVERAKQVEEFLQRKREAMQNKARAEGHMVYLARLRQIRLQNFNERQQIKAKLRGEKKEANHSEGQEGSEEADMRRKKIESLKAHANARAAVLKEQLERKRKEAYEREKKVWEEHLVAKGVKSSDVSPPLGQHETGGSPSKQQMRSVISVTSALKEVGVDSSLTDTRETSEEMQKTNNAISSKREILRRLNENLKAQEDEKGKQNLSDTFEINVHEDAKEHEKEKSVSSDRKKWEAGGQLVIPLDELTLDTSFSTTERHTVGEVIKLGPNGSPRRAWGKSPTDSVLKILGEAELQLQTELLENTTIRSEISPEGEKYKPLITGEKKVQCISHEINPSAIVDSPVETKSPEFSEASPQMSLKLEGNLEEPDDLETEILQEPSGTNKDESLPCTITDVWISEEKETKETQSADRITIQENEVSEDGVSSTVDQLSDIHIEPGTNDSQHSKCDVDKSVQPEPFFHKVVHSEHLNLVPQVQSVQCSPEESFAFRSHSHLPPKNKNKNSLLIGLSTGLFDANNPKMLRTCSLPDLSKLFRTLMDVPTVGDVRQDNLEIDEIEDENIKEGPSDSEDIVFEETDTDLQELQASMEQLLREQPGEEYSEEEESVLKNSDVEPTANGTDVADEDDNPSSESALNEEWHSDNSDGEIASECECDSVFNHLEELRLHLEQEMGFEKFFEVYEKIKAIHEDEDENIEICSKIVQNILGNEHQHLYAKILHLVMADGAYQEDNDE

[7] = tested on: Phosphatidylinositol 4,5-bisphosphate 3-kinase catalytic subunit alpha isoform (Homo sapiens), P42336 [H1047L]
Phosphatidylinositol 4,5-bisphosphate 3-kinase catalytic subunit alpha isoform (Homo sapiens), P42336 [H1047L], sequence (P42336 whole entry H1047L, canonical isoform): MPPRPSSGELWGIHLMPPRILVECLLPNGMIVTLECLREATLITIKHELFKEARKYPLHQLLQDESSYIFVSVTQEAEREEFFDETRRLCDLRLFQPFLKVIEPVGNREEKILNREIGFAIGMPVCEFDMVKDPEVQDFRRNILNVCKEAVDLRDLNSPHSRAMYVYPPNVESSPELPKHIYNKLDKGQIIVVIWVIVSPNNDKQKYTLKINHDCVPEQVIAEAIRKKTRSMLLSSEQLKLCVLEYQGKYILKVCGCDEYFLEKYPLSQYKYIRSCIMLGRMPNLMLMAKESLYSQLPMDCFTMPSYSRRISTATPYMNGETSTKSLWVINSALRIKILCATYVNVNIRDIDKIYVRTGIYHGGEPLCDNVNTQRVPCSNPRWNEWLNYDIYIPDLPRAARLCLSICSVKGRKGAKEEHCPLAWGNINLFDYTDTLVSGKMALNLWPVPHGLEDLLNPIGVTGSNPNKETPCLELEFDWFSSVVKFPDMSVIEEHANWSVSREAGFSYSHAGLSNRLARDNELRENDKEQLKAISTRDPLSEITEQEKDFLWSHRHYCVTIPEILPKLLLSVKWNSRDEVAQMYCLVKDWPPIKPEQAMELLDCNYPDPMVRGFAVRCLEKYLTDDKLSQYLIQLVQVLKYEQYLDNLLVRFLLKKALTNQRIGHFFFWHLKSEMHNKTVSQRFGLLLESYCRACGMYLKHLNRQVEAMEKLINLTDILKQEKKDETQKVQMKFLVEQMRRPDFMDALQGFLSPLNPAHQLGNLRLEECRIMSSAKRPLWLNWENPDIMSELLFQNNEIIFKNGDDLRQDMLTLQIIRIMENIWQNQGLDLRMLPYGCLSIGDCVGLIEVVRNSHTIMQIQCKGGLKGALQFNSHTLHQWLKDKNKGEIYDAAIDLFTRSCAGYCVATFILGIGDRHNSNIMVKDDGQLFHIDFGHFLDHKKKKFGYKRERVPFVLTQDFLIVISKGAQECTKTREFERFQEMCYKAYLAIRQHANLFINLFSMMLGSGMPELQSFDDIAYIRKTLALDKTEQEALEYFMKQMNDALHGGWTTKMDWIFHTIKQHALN

[8] = biological target: STE20/SPS1-related proline-alanine-rich protein kinase (Homo sapiens) (UniProt Q9UEW8)
[9] = biological target: Wee1-like protein kinase 2 (Homo sapiens) (UniProt P0C1S8)
Wee1-like protein kinase 2 (Homo sapiens), sequence (P0C1S8 whole entry, looked up): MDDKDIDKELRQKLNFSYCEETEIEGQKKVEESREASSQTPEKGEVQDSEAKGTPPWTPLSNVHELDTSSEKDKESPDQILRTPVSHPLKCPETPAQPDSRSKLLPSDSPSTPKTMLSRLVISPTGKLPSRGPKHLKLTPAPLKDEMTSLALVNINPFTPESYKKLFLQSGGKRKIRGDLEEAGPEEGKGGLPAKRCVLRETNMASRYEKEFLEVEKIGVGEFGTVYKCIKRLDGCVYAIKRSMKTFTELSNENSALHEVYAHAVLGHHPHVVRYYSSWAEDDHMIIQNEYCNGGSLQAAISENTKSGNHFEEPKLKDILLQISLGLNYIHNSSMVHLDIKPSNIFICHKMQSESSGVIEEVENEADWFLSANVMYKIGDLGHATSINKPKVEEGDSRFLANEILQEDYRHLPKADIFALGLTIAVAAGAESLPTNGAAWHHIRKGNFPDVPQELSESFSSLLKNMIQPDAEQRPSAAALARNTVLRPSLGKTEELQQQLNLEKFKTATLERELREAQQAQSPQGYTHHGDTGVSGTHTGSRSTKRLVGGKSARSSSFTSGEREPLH

[10] = biological target: Sigma intracellular receptor 2 (Homo sapiens, UniProt Q5BJF2); details: Compound concentration 10.0 uM
Sigma intracellular receptor 2, sequence (Q5BJF2 whole entry): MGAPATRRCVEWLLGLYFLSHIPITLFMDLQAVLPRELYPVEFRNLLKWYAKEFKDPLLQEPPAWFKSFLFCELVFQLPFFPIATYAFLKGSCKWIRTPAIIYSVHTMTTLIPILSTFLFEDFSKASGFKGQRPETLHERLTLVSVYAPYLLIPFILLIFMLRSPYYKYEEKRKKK

[11] = Compound concentration 100.0 nM
[12] = Compound concentration 1000.0 nM

Epidermal growth factor receptor (Homo sapiens), P00533 [UNDEFINED MUTATION], sequence (P00533 whole entry, looked up, change not shown): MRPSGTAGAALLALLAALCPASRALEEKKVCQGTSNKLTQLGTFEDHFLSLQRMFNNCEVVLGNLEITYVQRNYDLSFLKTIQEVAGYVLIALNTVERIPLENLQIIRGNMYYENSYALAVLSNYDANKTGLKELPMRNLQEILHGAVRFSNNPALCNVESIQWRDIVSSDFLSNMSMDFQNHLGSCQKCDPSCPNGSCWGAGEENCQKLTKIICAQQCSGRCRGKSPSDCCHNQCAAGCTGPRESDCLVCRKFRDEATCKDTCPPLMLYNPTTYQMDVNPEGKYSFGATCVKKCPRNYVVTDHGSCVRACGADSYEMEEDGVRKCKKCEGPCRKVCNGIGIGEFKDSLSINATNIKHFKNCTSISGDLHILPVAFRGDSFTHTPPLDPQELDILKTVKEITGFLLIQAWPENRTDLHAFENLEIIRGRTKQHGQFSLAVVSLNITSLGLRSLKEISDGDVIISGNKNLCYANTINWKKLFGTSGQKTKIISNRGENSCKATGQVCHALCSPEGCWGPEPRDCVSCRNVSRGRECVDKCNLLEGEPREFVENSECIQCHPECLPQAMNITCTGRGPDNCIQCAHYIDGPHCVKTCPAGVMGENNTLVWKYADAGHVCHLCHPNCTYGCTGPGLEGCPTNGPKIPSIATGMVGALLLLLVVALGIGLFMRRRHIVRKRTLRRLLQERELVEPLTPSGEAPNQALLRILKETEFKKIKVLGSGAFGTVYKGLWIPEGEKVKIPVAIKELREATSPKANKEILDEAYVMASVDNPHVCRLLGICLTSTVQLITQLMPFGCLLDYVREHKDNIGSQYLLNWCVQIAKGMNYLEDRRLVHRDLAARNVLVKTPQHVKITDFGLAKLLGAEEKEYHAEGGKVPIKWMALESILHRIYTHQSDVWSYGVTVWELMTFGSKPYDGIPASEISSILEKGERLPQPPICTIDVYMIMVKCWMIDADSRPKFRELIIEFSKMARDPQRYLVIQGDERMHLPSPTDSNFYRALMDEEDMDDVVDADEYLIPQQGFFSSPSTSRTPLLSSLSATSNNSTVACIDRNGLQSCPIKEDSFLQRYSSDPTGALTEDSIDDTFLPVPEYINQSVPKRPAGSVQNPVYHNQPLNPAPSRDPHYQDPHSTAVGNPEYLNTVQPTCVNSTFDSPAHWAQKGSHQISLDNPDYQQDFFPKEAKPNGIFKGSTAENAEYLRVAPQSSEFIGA
Tyrosine-protein kinase ABL1 (Homo sapiens), sequence (P00519 whole entry): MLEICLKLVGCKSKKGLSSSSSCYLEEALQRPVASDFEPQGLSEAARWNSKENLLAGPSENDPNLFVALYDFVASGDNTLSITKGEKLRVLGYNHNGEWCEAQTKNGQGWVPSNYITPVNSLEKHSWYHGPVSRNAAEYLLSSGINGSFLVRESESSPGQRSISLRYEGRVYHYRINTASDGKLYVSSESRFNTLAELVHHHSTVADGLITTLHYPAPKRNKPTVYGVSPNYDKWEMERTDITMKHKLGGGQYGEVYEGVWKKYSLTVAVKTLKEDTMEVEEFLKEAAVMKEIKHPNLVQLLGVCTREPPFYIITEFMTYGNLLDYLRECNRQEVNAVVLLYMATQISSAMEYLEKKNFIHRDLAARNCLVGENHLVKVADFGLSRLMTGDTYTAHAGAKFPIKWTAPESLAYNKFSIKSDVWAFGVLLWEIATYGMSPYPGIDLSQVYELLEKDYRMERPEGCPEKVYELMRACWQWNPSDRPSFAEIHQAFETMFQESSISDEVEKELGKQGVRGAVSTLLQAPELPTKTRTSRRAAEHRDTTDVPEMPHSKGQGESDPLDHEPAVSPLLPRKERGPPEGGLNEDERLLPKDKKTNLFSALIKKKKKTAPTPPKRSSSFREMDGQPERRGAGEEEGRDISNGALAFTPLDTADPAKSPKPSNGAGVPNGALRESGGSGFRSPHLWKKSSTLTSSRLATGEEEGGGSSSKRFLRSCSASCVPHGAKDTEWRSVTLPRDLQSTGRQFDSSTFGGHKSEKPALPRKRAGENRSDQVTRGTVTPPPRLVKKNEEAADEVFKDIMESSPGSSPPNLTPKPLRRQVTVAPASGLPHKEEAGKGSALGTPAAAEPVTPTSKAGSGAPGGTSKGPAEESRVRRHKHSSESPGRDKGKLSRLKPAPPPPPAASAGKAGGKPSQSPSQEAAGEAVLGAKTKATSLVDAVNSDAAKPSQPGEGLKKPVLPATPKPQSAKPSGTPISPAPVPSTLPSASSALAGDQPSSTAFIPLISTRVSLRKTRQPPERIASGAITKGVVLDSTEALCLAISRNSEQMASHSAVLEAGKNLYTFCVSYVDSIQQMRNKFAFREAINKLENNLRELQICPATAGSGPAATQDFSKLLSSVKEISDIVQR
Calcium/calmodulin-dependent protein kinase kinase 1 (Homo sapiens), sequence (Q8N5S9 whole entry, looked up): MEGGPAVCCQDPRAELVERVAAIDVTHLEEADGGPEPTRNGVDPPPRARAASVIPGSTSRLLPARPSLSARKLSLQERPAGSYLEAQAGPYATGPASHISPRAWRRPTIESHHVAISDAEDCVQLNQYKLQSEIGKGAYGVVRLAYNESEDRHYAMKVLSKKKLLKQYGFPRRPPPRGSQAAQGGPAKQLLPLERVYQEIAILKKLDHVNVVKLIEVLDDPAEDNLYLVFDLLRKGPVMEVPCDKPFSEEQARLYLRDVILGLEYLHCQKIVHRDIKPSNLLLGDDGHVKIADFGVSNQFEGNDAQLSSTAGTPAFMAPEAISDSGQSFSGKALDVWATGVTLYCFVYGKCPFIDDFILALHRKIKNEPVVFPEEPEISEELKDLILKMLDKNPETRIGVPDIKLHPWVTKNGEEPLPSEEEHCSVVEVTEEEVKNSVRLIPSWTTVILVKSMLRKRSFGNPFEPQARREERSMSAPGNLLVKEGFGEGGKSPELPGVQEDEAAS

Row | Compound | residual activity [1, 11] [%] | residual activity [2, 11] [%] | residual activity [3, 11] [%] | residual activity [4, 11] [%] | residual activity [5, 11] [%] | residual activity [6, 11] [%] | residual activity [7, 11] [%] | residual activity [8, 11] [%] | residual activity [9, 11] [%] | inhibition [10] [%] | residual activity [1, 12] [%] | residual activity [2, 12] [%] | residual activity [3, 12] [%] | residual activity [4, 12] [%] | residual activity [5, 12] [%] | residual activity [6, 12] [%] | residual activity [7, 12] [%] | residual activity [8, 12] [%] | residual activity [9, 12] [%]
1 | C[C@@H]1CN(c2cc(-c3n[nH]c4ccc(OC5(C)CC5)cc34)ncn2)C[C@H](C)O1 [MLi-2] | 87 | 100 | 53 | 100 | 64 | 100 | 87 | 85 | 100 | 50.4 | – | – | – | – | – | – | – | – | –
2 | C[C@@H]1CN(c2cc(-c3nn(C)c4ccc(OC5(C)CC5)cc34)ncn2)C[C@H](C)O1 [MLi-2-NC] | – | – | – | – | – | – | – | – | – | 90.4 | 85 | 80 | 67 | 91 | 100 | 83 | 83 | 70 | 96
